Results from patent publication US20220257541A1, “Lacosamide for the Treatment of ADD/ADHD” (priority 2019, published 2022).

How the values were obtained:
[1] = system: potassium or calcium currents; settings: cited from earlier work
[2] = system: AMPA, kainate, NMDA, GABAA, GABAB, dopaminergic, serotonergic, adrenergic, muscarinic or cannabinoid receptors; settings: cited from earlier work
[3] = system: voltage-gated sodium channels; settings: cited from earlier work
[4] = system: children and adolescents with ADHD syndrome; test: Case Study 3: Tutors evaluation pre to post treatment (DSM-V questionnaire); type: in vivo, human
Experimental: The Tutors Pre-Post Evaluation (self-administrated) was performed at the end of the study. This assessment required the person responsible for the patient's everyday life and care to evaluate the progression through the period of the study, including intellectual and behavioural changes.
The tutors have evaluated the patients using the DSM-V questionnaire, which is typically used as a standard to classify mental disorders by mental health professionals in the United States.

[5] = system: children and adolescents with ADHD syndrome; test: Case Study 3: pedagogical evaluation (literary and mathematical skills); type: in vivo, human
Experimental: In order to evaluate the academic level of the patients and later evolution while being treated, we established indicators of literary and mathematical skills of the patients in line with the official assessment of the Ministry of Education of the Dominican Republic.
Academic evolution was assessed 90 days after initiating the treatment and at the end of the 6th month.
In order to measure academic evolution we used different parameters, which are: Spanish language, Reading, Writing, Comprehension of their own reading, Mathematics, Reasoning, argumentation capacities and Problem solving.
Independently, we established at each evaluation the attained level of alphabetisation and the acquisition of literary skills every patient had, as shown in Table 3.
We categorised the sample following the protocol of the local Ministry of Education's Evaluation tool, which will qualify students following the consideration of “Non Acquired”, “Towards Acquisition” or “Acquired” levels.

[6] = system: children and adolescents with ADHD syndrome; test: Case Study 3: neuropsychological results analysis (executive function, attention); type: in vivo, human; settings: after six months on medication
Experimental: Neuropsychological evaluation was repeated after six months on medication, at the end of the study. These evaluations were guided by trained neuropsychologists. Four different evaluations were conducted: Continuous Performance Test (CPT)1, STROOP-P test, Wisconsin Card sorting Test and the Non Verbal Intelligence Test.
We measured pedagogical values and characteristics of the executive function (Reasoning, Cognitive Flexibility, Attentional function, Intellectual Quotient, impulse inhibition, Perseveration resistance) throughout the course of the treatment with lacosamide.

[7] = system: patient with ADHD of the combined type; test: Case Study 1: lacosamide mono-therapy in a child with ADHD; type: in vivo, human
Experimental: We present the case study of a child suffering from ADHD (with no comorbidity such as epilepsy or bipolar disorder). The child was treated with a lacosamide mono-therapy for several weeks based on the conventional treatment regime for lacosamide in children (for the treatment of epilepsy and/or bipolar disorder).
This case study describes the case of a person (“the patient”) with ADHD of the combined type. The patient had not previously been treated with any psychotropic drugs.
Before initiating the selected drug treatment, the patient underwent a full medical examination. In addition, reports from their school teachers as well as parents were collected.
Lacosamide was administered to the patient following the approved treatment regimen for lacosamide (Vimpat®) in epileptic children from 4 years of age.
The treatment was delivered twice a day and went on for >8 weeks.

[8] = system: children and adolescents with ADHD syndrome; test: Case Study 3: 'PASA' clinical questionnaire (Thinking, Mood, Sleep, Alterity); type: in vivo, human
Experimental: This study describes a series of cases of 12 children and adolescents (aged between 7 and 17 year old) treated with lacosamide. The patients were from 3 different orphanages and under the general supervision of a tutor.
We administrated doses adjusted to age and weight of each patient, in line with the therapeutic doses described herein. Specifically, lacosamide was administered to the patients following the approved treatment regimen for lacosamide (Vimpat®) in epileptic children from 4 years of age as per Table 1 above. The patients were at constant supervision of the tutor and other personnel of the orphanages.
After being selected by the tutors, children were evaluated during a clinical consultation carried out in their own institution. Through this consultation, we verified the clinical condition of each child or adolescent, their records and anamnesis, if any. We also filled out the Clinical story forms. At the same time, we performed the first ‘PASA’ Evaluation. The ‘PASA’ Test is a clinical questionnaire that was developed by the inventor of the present application (see FIG. 1 for questionnaire questions). It includes examination of Thinking (“P” for “Pensamiento”), Mood (“A” for “Animo”), Sleep (“S” for “Sueno”) and Alterity (“A” for “Alteridad”).
‘PASA’ Evaluation was repeated every 60 days after initiating the medication. The four editions of this questionnaire were compared and analysed, drawing a close-up portrait of the clinical evolution of these cases.
The overall trend is very favourable in all cases. Patients' symptoms improved in all categories. In this study, the patients were evaluated before treatment with lacosamide (evaluation 1) and every 2 months in the course of the treatment.

[9] = system: voltage-gated calcium channels (L-, N-, P/Q, T-type channels); settings: cited from earlier work
[10] = end of the study, 17% prior to treatment
[11] = after treatment, ~75% at the beginning

SMILES: COC[C@@H](NC(C)=O)C(=O)NCc1ccccc1 [lacosamide, (2R)-2-(acetylamino)-N-benzyl-3-methoxypropanamide]
- block of potassium or calcium currents [1]: does not block
- effect on AMPA, kainate, NMDA, GABAA, GABAB, dopaminergic, serotonergic, adrenergic, muscarinic or cannabinoid receptors [2]: does not affect
- fast inactivation of voltage-gated sodium channels [3]: without affecting
- slow inactivation of voltage-gated sodium channels [3]: enhances
- behaviour, tutors' DSM-V questionnaire [4]: significantly improved across all tested elements
- pedagogic evaluation, all tested competencies ([5]; 6-month treatment, tests pre-treatment, after 3 and 6 months): gradual progression
- patients who completely acquired Reasoning and Solving Problems (Mathematics) ([5]; after 3 months of treatment, initial 25%): 50%
- subjects at the intermediate level, Towards Acquisition ([5]; end of the study): 25%
- change in patients who acquired the reading and writing skills ([5]; end of the study versus first evaluation): +60%
- patients able to understand what they were reading (Comprehensive Reading) [5, 10]: 83%
- patients who completely acquired the reading and writing skills [5, 10]: 75%
- subjects at the non-acquired level (Read, Write, Comprehensive Reading) ([5]; end of the study, 83% prior to treatment): 0%
- proportion of the sample Alphabetised (alphabetical level) ([5]; maintained until the end of the study, 25% at the beginning): 75%
- Visual Attention, Perseveration Resistance and Impulse Inhibition [6]: did not show the expected improvement
- indicator Attentional Difficulty [6]: improvement
- variables of distraction and impulsivity [6]: no impact
- tolerance of the maximum dose administered ([7]; 250 mg/day): no signs of intolerance or inadequacy
- tolerance of the dose ([7]; Day 8, 25 mg every 12 hours (50 mg/day)): tolerated the dose well
- behaviour, sleeping activity, cognitive functionality ([7]; Day 8, 50 mg/day): No improvement
- adverse reaction observed ([7]; Day 8, 50 mg/day, ceased after the first few days of treatment): sporadic headaches
- quality of sleep or cognitive functionality ([7]; Day 15, 100 mg/day): No improvement
- quality of sleep ([7]; Day 23, 75 mg every 12 hours (150 mg/day)): Improvement
- cognitive functionality ([7]; Day 23, 150 mg/day): improved
- lethargic napping in the afternoon ([7]; Day 32, after increase to 200 mg/day, symptoms subsequently became milder): initially replaced with agitation and hyperactivity
- behaviour at school and home ([7]; Day 36, 200 mg/day): consistent improvement
- aggression or irritability at home ([7]; Day 49, 125 mg every 12 hours (250 mg/day)): did not show any aggression or irritability
- conversation in consultation ([7]; Day 49, 250 mg/day): able to sustain longer logical conversations, at least partially
- dysphasia ([7]; Day 63, 250 mg/day): gradual improvement
- hyperactivity ([7]; Day 63, 250 mg/day): no signs of hyperactivity
- quality of sleep ([7]; Day 63, 250 mg/day): dramatically improved
- dose after which sleep pattern and vegetative functions began to stabilize ([7]; administered as two separate 75 mg doses): 150 mg/day
- dose at which higher functions were stabilized ([7]; administered as two separate 100 mg doses): ~200 mg/day
- ADHD symptomatology ([7]; child, mono-therapy for several weeks): regressed dramatically
- secondary reactions or effects ([7]; twice a day for >8 weeks): No secondary reactions or effects were observed
- Mood and Sleep symptoms in most patients ([8]; 12 patients, 6 months): complete or nearly complete alleviation of the symptoms
- all tested 'PASA' categories (Sleep Activity, Thoughts, Mood) ([8]; 12 patients, 6 months): positive impact
- patients with depressive unjustified feelings ([8]; after six months of treatment, from 25%): 0%
- patients with irritability ([8]; after treatment, from 33.3%): 16.7%
- patients with cenesthesia [8, 11]: 8.3%
- patients with hyper emotion [8, 11]: 25%
- patients with hypomania [8, 11]: 16.7%
- patients with lethargy [8, 11]: 8.3%
- patients with mood change [8, 11]: 0%
- patients with tiredness [8, 11]: 8.3%
- Trend of Thought: Disordered ([8]; end of study (6 months), 67% of 12 patients before treatment): completely disappeared
- Trend of Thought: Overabundant ([8]; end of study (6 months), 83% of 12 patients before treatment): completely disappeared
- distressing thoughts ([8]; end of study, 17% of patients at the beginning): completely eliminated
- patients with difficulties with falling asleep ([8]; end of study, from 75%): 0%
- patients with sleep interruption ([8]; end of study, from 83%): 8.3%
- patients with sudden off-sense disconnections (spacing out) ([8]; end of study, initially 50%): 33%
- patients with dysphasia (inability of sustaining attention or understanding a long phrase) ([8]; end of study, initially 83%): 42%
- patients with second thoughts disturbing concentration ([8]; end of study, initially 83%): 42%
- patients with cenesthesic presences (sleep) ([8]; end of the trial period, from 75%): 8.3%
- general state after waking up, sleeping without interruptions and ease of sleep ([8]; four evaluations over 6 months): improvement
- realistic dreams ([8]; four evaluations over 6 months): not significantly affected
- patients with blocking thoughts ([8]; in the course of treatment, 50% at the beginning): 25%
- Hypercritical thinking ([8]; over the course of the study): small improvement
- Tachypsychia ([8]; over the course of the study): small improvement
- inhibition of voltage-gated calcium channels (L-, N-, P/Q, T-type) [9]: not to inhibit
